Laboratory results from publication PMC10974533, “Cationicity Enhancement on the Hydrophilic Face of Ctriporin Significantly Reduces Its Hemolytic Activity and Improves the Antimicrobial Activity against Antibiotic-Resistant ESKAPE Pathogens” (Toxins, 2024).
Where a SMILES comes first, the peptide text is derived from it.

What was measured:
Format in all cases: cell-based
S. aureus ATCC25923 = experiment: MIC, broth dilution, standard strain; settings: broth dilution (CLSI), MHB, 37 °C, 16–20 h
Procedure: (§1) The standard strains, including S. aureus ATCC29213 and ATCC25923, E. faecalis ATCC29212, E. coli ATCC25922 and ATCC35218, A. baumannii ATCC19606, K. pneumoniae ATCC700603, and P. aeruginosa ATCC27853, were purchased from the China Center of Type Culture Collection (CCTCC). The clinical strains of the ESKAPE pathogens were isolated from the affiliated hospitals of Hubei University of Medicine. All of them were stored at −80 °C before use. The drug sensitivities of the clinical strains were determined by the Kirby–Bauer test.
(§2) The MICs were determined using the broth dilution method according to the guidelines of the Clinical and Laboratory Standards Institute (CLSI), as described in the previous studies. Briefly, the bacterial cells were incubated in Mueller–Hinton broth (MHB, Oxoid, Basingstoke, UK) at 37 °C and 150 rpm to the mid-growth phase and diluted to achieve a final concentration of 5 × 10^5 colony-forming units per milliliter (CFU/mL). Then, the cells were mixed with each peptide in different concentrations (1, 2, 4, 8, 16, 32, and 64 μg/mL). […] All experiments were repeated at least three times.

E. coli ATCC25922 = experiment: MIC, broth dilution, standard strain; settings: broth dilution (CLSI), MHB, 37 °C, 16–20 h
Procedure: as §1, §2

S. aureus ATCC29213 = experiment: MIC, broth dilution, standard strain; settings: broth dilution (CLSI), MHB, 37 °C, 16–20 h
Procedure: as §1, §2

E. faecium ATCC29212 = experiment: MIC, broth dilution, standard strain; settings: broth dilution (CLSI), MHB, 37 °C, 16–20 h
Procedure: as §1, §2

P. aeruginosa ATCC27853 = experiment: MIC, broth dilution, standard strain; settings: broth dilution (CLSI), MHB, 37 °C, 16–20 h
Procedure: as §1, §2

K. pneumoniae ATCC700603 = experiment: MIC, broth dilution, standard strain; settings: broth dilution (CLSI), MHB, 37 °C, 16–20 h
Procedure: as §1, §2

E. coli ATCC35218 = experiment: MIC, broth dilution, standard strain; settings: broth dilution (CLSI), MHB, 37 °C, 16–20 h
Procedure: as §1, §2

A. baumannii ATCC19606 = experiment: MIC, broth dilution, standard strain; settings: broth dilution (CLSI), MHB, 37 °C, 16–20 h
Procedure: as §1, §2

[1] = tested on: human red blood cells (hRBC); experiment: Hemolytic activity determination; settings: 2% (v/v) hRBC, 37 °C, 1 h; for Hemolysis% at 256 μg/mL: 256 μg/mL peptide, OD540, 1% Triton X-100 = 100%, average ± standard error of three independent experiments
Procedure: Figure 2 Hemolytic activities of Ctriporin and its analogs against human red blood cells (hRBC). Hemolytic activities of Ctriporin (solid circle), CM1 (open circle), CM2 (open square), CM3 (upward triangle), CM4 (downward triangle), CM5 (half solid circle), CM6 (half solid square), and CM7 (half solid triangle), were measured against 2% (v/v) human red blood cells. The peptide concentrations are 0, 2, 4, 8, 16, 32, 64, 128, 256, and 512 μg/mL. The cells treated with 1% Triton X-100 were treated as 100% hemolysis. All experiments were repeated three times, and the data shown are the average ± standard error.
The hemolytic activities of the peptides were determined against human red blood cells (hRBCs). As described, sodium citrate-anticoagulated hRBCs were washed three times with 0.9% sodium chloride and diluted to a final concentration of 4% (v/v). Then, an equal volume of hRBC solutions was mixed with an equal volume of each peptide in a series of concentrations (0, 2, 4, 8, 16, 32, 64, 128, 256, and 512 μg/mL). After co-incubation at 37 °C for 1 h, the degree of hemolysis of the peptides was determined by detecting the release of hemoglobin from the damaged hRBCs by measuring the optical density at 540 nm (OD540). hRBCs in 0.9% sodium chloride and 1% Triton X-100 were considered 0% and 100% hemolysis, respectively. The results shown are the average ± standard error of data derived from three independent experiments. The percent hemolysis was calculated according to the following equation [53, 54]:Hemolysis (%) = 100 × (Asample − Ablank)/(Apositive − Ablank)

standard ESKAPE strains = settings: broth dilution (CLSI), MHB, 37 °C, 16–20 h; range over all standard strains
Procedure: The ESKAPE pathogens represent the main threat to public health concerning antimicrobial resistance. Therefore, we first evaluated the antimicrobial activities of Ctriporin and its analogs against the standard ESKAPE strains. The minimum inhibitory concentration (MIC) was chosen as the index for the evaluation of each peptide’s activity. […] Note that the MICs of CM4 and CM7 are 4–32 and 8–32 μg/mL, respectively, indicating the existence of significant bacterial species deviations for the antimicrobial activity of these peptides. In addition, the replacement of specific residues, especially Pro^7, may harm the antimicrobial activities of the peptide.
as §1, §2

[2] = 5 × 10^5 CFU/mL, OD630, repeated at least three times

| Structure (SMILES) | MICs (S. aureus ATCC25923; [2]) | MICs (S. aureus ATCC25923; value in parentheses) | MICs (E. coli ATCC25922; [2]) | MICs (S. aureus ATCC29213; [2]) | MICs (S. aureus ATCC29213; value in parentheses) | MICs (E. faecium ATCC29212; [2]) | MICs (E. faecium ATCC29212; value in parentheses) | MICs (P. aeruginosa ATCC27853; [2]) | MICs (P. aeruginosa ATCC27853; value in parentheses) | MICs (K. pneumoniae ATCC700603; [2]) | MICs (K. pneumoniae ATCC700603; value in parentheses) | MICs (E. coli ATCC35218; [2]) | MICs (E. coli ATCC35218; value in parentheses) | MICs (A. baumannii ATCC19606; [2]) | MICs (A. baumannii ATCC19606; value in parentheses) | Hemolysis% at 256 μg/mL [1] | MICs (E. coli ATCC25922; value in parentheses) | MICs against the ESKAPE pathogens (range over the standard strains of Table 2) (standard ESKAPE strains) | curve of hemolysis% vs. peptide concentration (Figure 2) ([1]; 0–512 μg/mL peptide, compared in words) |
| --- | --- | --- | --- | --- | --- | --- | --- | --- | --- | --- | --- | --- | --- | --- | --- | --- | --- | --- | --- |
| CC[C@H](C)[C@H](NC(=O)[C@H](C)NC(=O)CNC(=O)[C@@H]1CCCN1C(=O)[C@@H](NC(=O)[C@H](CC(C)C)NC(=O)[C@H](CCCCN)NC(=O)[C@H](Cc1c[nH]c2ccccc12)NC(=O)[C@H](CC(C)C)NC(=O)[C@@H](N)Cc1ccccc1)[C@@H](C)CC)C(=O)N[C@@H](CO)C(=O)N[C@@H](C)C(=O)N[C@H](C(=O)N[C@H](C(=O)N[C@@H](CO)C(=O)N[C@@H](CC(C)C)C(=O)N[C@H](C(=O)N[C@@H](CCCCN)C(=O)N[C@@H](CCCCN)C(N)=O)[C@@H](C)CC)[C@@H](C)O)C(C)C [CM1] (H-FLWKLIPGAISAVTSLIKK-NH2; N-terminus assumed) | 16 µg/mL | 7.7 µM | 8 µg/mL | 8 µg/mL | 3.8 µM | 16 µg/mL | 7.7 µM | > 64 µg/mL | > 30.7 µM | 64 µg/mL | 30.7 µM | 32 µg/mL | 15.4 µM | 8 µg/mL | 3.8 µM | 75.6 ± 10.1% | – | – | – |
| CC[C@H](C)[C@H](NC(=O)[C@H](C)NC(=O)[C@H](CCCCN)NC(=O)[C@@H]1CCCN1C(=O)[C@@H](NC(=O)[C@H](CC(C)C)NC(=O)[C@H](CCCCN)NC(=O)[C@H](Cc1c[nH]c2ccccc12)NC(=O)[C@H](CC(C)C)NC(=O)[C@@H](N)Cc1ccccc1)[C@@H](C)CC)C(=O)N[C@@H](CO)C(=O)N[C@@H](C)C(=O)N[C@H](C(=O)N[C@H](C(=O)N[C@@H](CO)C(=O)N[C@@H](CC(C)C)C(=O)N[C@H](C(=O)N[C@@H](CCCCN)C(=O)N[C@@H](CCCCN)C(N)=O)[C@@H](C)CC)[C@@H](C)O)C(C)C [CM2] (H-FLWKLIPKAISAVTSLIKK-NH2; N-terminus assumed) | 8 µg/mL | 3.7 µM | 4 µg/mL | 4 µg/mL | 1.9 µM | 4 µg/mL | 1.9 µM | 16 µg/mL | 7.4 µM | 16 µg/mL | 7.4 µM | 8 µg/mL | 3.7 µM | 4 µg/mL | 1.9 µM | 74.3 ± 9.2% | 1.9 µM | – | – |
| CC[C@H](C)[C@H](NC(=O)[C@H](C)NC(=O)[C@H](CCCCN)NC(=O)[C@@H]1CCCN1C(=O)[C@@H](NC(=O)[C@H](CC(C)C)NC(=O)[C@H](CCCCN)NC(=O)[C@H](Cc1c[nH]c2ccccc12)NC(=O)[C@H](CC(C)C)NC(=O)[C@@H](N)Cc1ccccc1)[C@@H](C)CC)C(=O)N[C@@H](CCCCN)C(=O)N[C@@H](C)C(=O)N[C@H](C(=O)N[C@H](C(=O)N[C@@H](CO)C(=O)N[C@@H](CC(C)C)C(=O)N[C@H](C(=O)N[C@@H](CCCCN)C(=O)N[C@@H](CCCCN)C(N)=O)[C@@H](C)CC)[C@@H](C)O)C(C)C [CM3] (H-FLWKLIPKAIKAVTSLIKK-NH2; N-terminus assumed) | 4 µg/mL | 1.8 µM | 4 µg/mL | 4 µg/mL | 1.8 µM | 4 µg/mL | 1.8 µM | 8 µg/mL | 3.6 µM | 8 µg/mL | 3.6 µM | 4 µg/mL | 1.8 µM | 4 µg/mL | 1.8 µM | 89.1 ± 12.1% | 1.8 µM | 4 to 8 µg/mL | – |
| CC[C@H](C)[C@H](NC(=O)[C@H](C)NC(=O)[C@H](CCCCN)NC(=O)[C@@H]1CCCN1C(=O)[C@@H](NC(=O)[C@H](CC(C)C)NC(=O)[C@H](CCCCN)NC(=O)[C@H](Cc1c[nH]c2ccccc12)NC(=O)[C@H](CC(C)C)NC(=O)[C@@H](N)Cc1ccccc1)[C@@H](C)CC)C(=O)N[C@@H](CCCCN)C(=O)N[C@@H](CCCCN)C(=O)N[C@H](C(=O)N[C@H](C(=O)N[C@@H](CO)C(=O)N[C@@H](CC(C)C)C(=O)N[C@H](C(=O)N[C@@H](CCCCN)C(=O)N[C@@H](CCCCN)C(N)=O)[C@@H](C)CC)[C@@H](C)O)C(C)C [CM4] (H-FLWKLIPKAIKKVTSLIKK-NH2; N-terminus assumed) | 8 µg/mL | 3.6 µM | 8 µg/mL | 4 µg/mL | 1.8 µM | 16 µg/mL | 7.1 µM | 16 µg/mL | 7.1 µM | 32 µg/mL | 14.2 µM | 16 µg/mL | 7.1 µM | 4 µg/mL | 1.8 µM | 14.0 ± 4.7% | 3.6 µM | 4 to 32 µg/mL | decreased dramatically compared with Ctriporin |
